The values below come from paper PMC6762200, “Discovery of novel West Nile Virus protease inhibitor based on isobenzonafuranone and triazolic derivatives of eugenol and indan-1,3-dione scaffolds” (PLoS ONE, 2019).

Each structure is given as a SMILES string.

Test [1] concerns the target T1, WNV NS2B-NS3 protease (NS2B-NS3pro) (West Nile virus strain NY-99, UniProt Q9Q6P4).
T1 construct: gene GP1; cut from WNV genome polyprotein; with Serine protease subunit NS2B (cofactor region)
Nature of the test: fluorogenic protease assay, pERTKR-AMC, nonlinear fit in competitive mode. The test is classed as biochemical.

The target of test [2] is T1, WNV NS2B-NS3 protease (NS2B-NS3pro). Nature of the test: fluorogenic protease assay, pERTKR-AMC, four-parameter fit, […] concentrations. The test is classed as biochemical.

T1 sequence (Q9Q6P4 1423-1469): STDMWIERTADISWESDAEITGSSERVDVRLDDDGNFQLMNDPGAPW
T1 sequence (Q9Q6P4 1506-1689): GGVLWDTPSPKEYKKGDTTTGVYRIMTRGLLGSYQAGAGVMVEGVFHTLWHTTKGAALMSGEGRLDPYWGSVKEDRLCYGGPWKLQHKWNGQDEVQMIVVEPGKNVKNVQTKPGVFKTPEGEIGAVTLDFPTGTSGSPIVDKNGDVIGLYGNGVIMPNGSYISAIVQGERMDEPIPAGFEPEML

For the molecule `C=CCc1ccc(OCc2cn(Cc3ccccc3Br)nn2)c(OC)c1` [compound 35, 4-((4-allyl-2-methoxyphenoxy)methyl)-1-(2-bromobenzyl)-1H-1,2,3-triazole], in test [1], affinity was put at a Ki of 3.06 µM. Besides, the IC50 (usually the concentration that gives 50% inhibition) in test [2] amounted to 6.86 µM.
